One data set relates to Moraxella catarrhalis. Put plainly: MIC by agar dilution, MCAT 30607. It is filed as cell-based. Conditions: Moraxella catarrhalis, strain MCAT 30607, read-out: Antibacterial Activity Minimum Inhibitory Concentration MCAT 30607. An excerpt: (§1) The in vitro activity of compounds of this invention can be assessed by standard testing procedures such as the determination of minimum inhibitory concentration (MIC) by agar dilution as described in “Approved Standard.

The next data set concerns Enterococcus faecalis. Put plainly: MIC by agar dilution, EFAE 9217. In kind it is cell-based. Conditions: Enterococcus faecalis, strain EFAE 9217, read-out: Antibacterial Activity Minimum Inhibitory Concentration EFAE 9217.
From the text: as §1
(In agar dilution, organisms are placed on agar that contains the substance at set levels.)

The next data set concerns Enterococcus faecium. Put plainly: MIC by agar dilution, EFAE 12712. It is filed as cell-based. Conditions: Enterococcus faecium, strain EFAE 12712, read-out: Antibacterial Activity Minimum Inhibitory Concentration EFAE 12712.
From the text: as §1

The next data set relates to H. influenzae. Put plainly: MIC by agar dilution, HINF 30063. In kind it is cell-based. The note with it: Haemophilus influenzae, strain HINF 30063, read-out: Antibacterial Activity Minimum Inhibitory Concentration HINF 30063.
From the text: as §1

In another data set the test system is Streptococcus pyogenes. Put plainly: MIC by agar dilution, SPYO 152. Conditions: Streptococcus pyogenes, strain SPYO 152, read-out: Antibacterial Activity Minimum Inhibitory Concentration SPYO 152. It is filed as cell-based.
From the text: as §1

In another data set the test system is Streptococcus pneumoniae. Put plainly: MIC by agar dilution, SPNE 9912. In kind it is cell-based. Conditions: Streptococcus pneumoniae, strain SPNE 9912, read-out: Antibacterial Activity Minimum Inhibitory Concentration SPNE 9912.
From the text: as §1

Another data set deals with Staphylococcus aureus. Put plainly: MIC by agar dilution, SAUR 9213. Conditions: Staphylococcus aureus, strain SAUR 9213, read-out: Antibacterial Activity Minimum Inhibitory Concentration SAUR 9213. It is filed as cell-based.
From the text: as §1

Data set [1] concerns Staphylococcus epidermidis. Put plainly: MIC by agar dilution, SEPI 30593. In kind it is cell-based. The note with it: Staphylococcus epidermidis, strain SEPI 30593, read-out: Antibacterial Activity Minimum Inhibitory Concentration SEPI 30593.
From the text: as §1

≈ marks a conversion by molar mass, not a printed value.

For `N=S1(=O)CCN(c2ccc(N3C[C@H](CNC(=S)C4CC4)OC3=O)cc2F)CC1` [Example 3, N-({(5S)-3-[3-Fluoro-4-(1-imino-1-oxido-1λ^4,4-thiazinan-4-yl)phenyl]-2-oxo-1,3-oxazolidin-5-yl}methyl)cyclopropanecarbothioamide], the melting point – broadly, the temperature, or range, at which the solid turns liquid – was 209 to 210 °C (dec.). For the same molecule, in the data set on Moraxella catarrhalis, the MIC came to 1 µg/mL (≈ 2.34 µM). Also, in the data set on Enterococcus faecalis, the MIC is 1 µg/mL (≈ 2.34 µM). For the same molecule, the MIC in the data set on Enterococcus faecium came out at 0.5 µg/mL (≈ 1.17 µM). Besides, in the data set on H. influenzae, the MIC is 4 µg/mL (≈ 9.38 µM). Moreover, in the data set on Streptococcus pyogenes, the MIC amounted to 0.25 µg/mL (≈ 0.586 µM). For the same molecule, in the data set on Streptococcus pneumoniae, the MIC stood at 0.25 µg/mL (≈ 0.586 µM). Besides, in the data set on Staphylococcus aureus, the MIC worked out at 1 µg/mL (≈ 2.34 µM). In addition, in [1], the MIC was found to be 0.25 µg/mL (≈ 0.586 µM).

`CC[N-][S@+2]1([O-])CC[C@@H](c2ccc(N3C[C@H](CNC(=S)CC)OC3=O)cc2F)CC1` [Example 15, N-({(5S)-3-[3-Fluoro-4-[1-(ethylimino)-1-oxidohexahydro-1λ^4-thiopyran-4-yl]phenyl]-2-oxo-1,3-oxazolidin-5-yl}methyl)propanethioamide, Z-isomer] yielded a melting point of 200 to 201 °C. Besides, in the data set on Moraxella catarrhalis, the MIC was found to be 2 µg/mL (≈ 4.53 µM). For the same molecule, the MIC with Enterococcus faecalis amounted to 1 µg/mL (≈ 2.26 µM). Besides, the MIC with Enterococcus faecium came out at 1 µg/mL (≈ 2.26 µM). Moreover, the MIC with H. influenzae stood at 8 µg/mL (≈ 18.1 µM). The MIC with Streptococcus pyogenes worked out at 0.5 µg/mL (≈ 1.13 µM). Further, the MIC in the data set on Streptococcus pneumoniae was determined as 0.5 µg/mL (≈ 1.13 µM). Further, the MIC with Staphylococcus aureus stood at 2 µg/mL (≈ 4.53 µM). Also, in [1], the MIC was 1 µg/mL (≈ 2.26 µM).

Consider `CCC(=S)NCC1CN(c2ccc(C3CC[S+2]([O-])([N-]Cc4ccccc4)CC3)c(F)c2)C(=O)O1` [Example 16, N-({(5S)-3-[3-Fluoro-4-[1-[(phenylmethyl)imino]-1-oxidohexahydro-1λ^4-thiopyran-4-yl]phenyl]-2-oxo-1,3-oxazolidin-5-yl}methyl)propanethioamide, Z-isomer], for which the melting point is 207 to 208 °C. Further, the MIC in the data set with Moraxella catarrhalis was 2 µg/mL (≈ 3.97 µM). Moreover, in the data set on Enterococcus faecalis, the MIC was 1 µg/mL (≈ 1.99 µM). In addition, the MIC with Enterococcus faecium was 1 µg/mL (≈ 1.99 µM). Also, the MIC with H. influenzae was more than 64 µg/mL. The MIC with Streptococcus pyogenes amounted to 0.5 µg/mL (≈ 0.993 µM). The MIC in the data set on Streptococcus pneumoniae came out at 0.25 µg/mL (≈ 0.496 µM). Further, the MIC with Staphylococcus aureus amounted to 2 µg/mL (≈ 3.97 µM). The MIC in data set [1] stood at 1 µg/mL (≈ 1.99 µM).

Regarding `CCC(=S)NCC1CN(c2ccc(C3CC[S+2]([O-])([N-]CCCc4ccccc4)CC3)c(F)c2)C(=O)O1` [Example 17, N-({(5S)-3-[3-Fluoro-4-[1-[(3-phenylpropyl)imino]-1-oxidohexahydro-1λ^4-thiopyran-4-yl]phenyl]-2-oxo-1,3-oxazolidin-5-yl}methyl)propanethioamide, Z-isomer], the melting point lay within 165.5 to 167 °C. For the same molecule, the MIC with Moraxella catarrhalis amounted to 2 µg/mL (≈ 3.76 µM). For the same molecule, the MIC in the data set on Enterococcus faecalis stood at 1 µg/mL (≈ 1.88 µM). The MIC in the data set on Enterococcus faecium came out at 2 µg/mL (≈ 3.76 µM). Further, the MIC with H. influenzae was more than 64 µg/mL. Besides, the MIC in the data set on Streptococcus pyogenes stood at 1 µg/mL (≈ 1.88 µM). Further, in the data set on Streptococcus pneumoniae, the MIC was 0.5 µg/mL (≈ 0.94 µM). Further, in the data set on Staphylococcus aureus, the MIC was 2 µg/mL (≈ 3.76 µM). For the same molecule, the MIC in data set [1] stood at 2 µg/mL (≈ 3.76 µM).

On to `CCC(=S)NCC1CN(c2ccc(C3CC[S+2]([O-])([N-]C(=O)NC)CC3)c(F)c2)C(=O)O1` [Example 18, N-({(5S)-3-[3-Fluoro-4-(1-{[(methylamino)carbonyl]imino}-1-oxidohexahydro-1λ^4-thiopyran-4-yl)phenyl]-2-oxo-1,3-oxazolidin-5-yl}methyl)propanethioamide, Z-isomer], for which the melting point lay within 203 to 204 °C. Also, the MIC in the data set with Moraxella catarrhalis was 4 µg/mL (≈ 8.5 µM). Also, in the data set with Enterococcus faecalis, the MIC worked out at 1 µg/mL (≈ 2.12 µM). The MIC in the data set on Enterococcus faecium was found to be 1 µg/mL (≈ 2.12 µM). Also, the MIC in the data set with H. influenzae came to 8 µg/mL (≈ 17 µM). In addition, the MIC in the data set on Streptococcus pyogenes came to 0.5 µg/mL (≈ 1.06 µM). Moreover, the MIC in the data set on Streptococcus pneumoniae was 0.25 µg/mL (≈ 0.531 µM). For the same molecule, in the data set with Staphylococcus aureus, the MIC is 2 µg/mL (≈ 4.25 µM). Further, the MIC in data set [1] is 1 µg/mL (≈ 2.12 µM).

`CCC(=S)NCC1CN(c2ccc(C3CC[S+2]([O-])([N-]C(=O)Nc4ccc([N+](=O)[O-])cc4)CC3)c(F)c2)C(=O)O1` [Example 21, N-({(5S)-3-[3-Fluoro-4-(1-{[[(4-nitrophenyl)amino]carbonyl]imino}-1-oxidohexahydro-1λ^4-thiopyran-4-yl)phenyl]-2-oxo-1,3-oxazolidin-5-yl}methyl)propanethioamide, Z-isomer] displayed a melting point of 222 to 228 °C. In addition, the MIC in the data set on Moraxella catarrhalis came to 0.25 µg/mL (≈ 0.433 µM). Moreover, the MIC with Enterococcus faecalis was determined as 0.25 µg/mL (≈ 0.433 µM). Also, the MIC in the data set with Enterococcus faecium was determined as 0.25 µg/mL (≈ 0.433 µM). Moreover, the MIC in the data set with H. influenzae is more than 64 µg/mL. Also, the MIC in the data set with Streptococcus pyogenes is 0.125 µg/mL (≈ 0.216 µM). Also, in the data set with Streptococcus pneumoniae, the MIC was less than 0.06 µg/mL. For the same molecule, the MIC with Staphylococcus aureus was 0.5 µg/mL (≈ 0.866 µM). The MIC in [1] stood at 0.25 µg/mL (≈ 0.433 µM).

With `CCC(=S)NC[C@H]1CN(c2ccc([C@H]3CC[S@+2]([O-])([N-]C(N)=O)CC3)c(F)c2)C(=O)O1` [Example 22, N-({(5S)-3-[3-Fluoro-4-[1-[(aminocarbonyl)imino]-1-oxidohexahydro-1λ^4-thiopyran-4-yl]phenyl]-2-oxo-1,3-oxazolidin-5-yl}methyl)propanethioamide, Z-isomer], the melting point is 236 to 238 °C (dec.). In the data set with Moraxella catarrhalis, the MIC is 2 µg/mL (≈ 4.38 µM). For the same molecule, the MIC with Enterococcus faecalis was 0.5 µg/mL (≈ 1.1 µM). Moreover, the MIC with Enterococcus faecium stood at 0.5 µg/mL (≈ 1.1 µM). In addition, the MIC in the data set with H. influenzae came to 4 µg/mL (≈ 8.76 µM). Moreover, the MIC in the data set on Streptococcus pyogenes was found to be 0.5 µg/mL (≈ 1.1 µM). Further, in the data set with Streptococcus pneumoniae, the MIC was 0.125 µg/mL (≈ 0.274 µM). For the same molecule, the MIC in the data set on Staphylococcus aureus came out at 2 µg/mL (≈ 4.38 µM). In addition, the MIC in data set [1] is 0.05 µg/mL (≈ 0.11 µM).

In turn, `CCC(=S)NC[C@H]1CN(c2ccc([C@H]3CC[S@+2]([O-])([N-]CC(N)=O)CC3)c(F)c2)C(=O)O1` [Example 23, N-({(5S)-3-[3-Fluoro-4-[1-[[(aminocarbonyl)methyl]imino]-1-oxidohexahydro-1λ^4-thiopyran-4-yl]phenyl]-2-oxo-1,3-oxazolidin-5-yl}methyl)propanethioamide, Z-isomer] showed a melting point of 221 to 222 °C. The MIC in the data set on Moraxella catarrhalis worked out at 4 µg/mL (≈ 8.5 µM). Besides, in the data set on Enterococcus faecalis, the MIC came out at 0.5 µg/mL (≈ 1.06 µM). Besides, in the data set with Enterococcus faecium, the MIC was found to be 1 µg/mL (≈ 2.12 µM). For the same molecule, the MIC in the data set on H. influenzae stood at 4 µg/mL (≈ 8.5 µM). The MIC in the data set with Streptococcus pyogenes is 0.5 µg/mL (≈ 1.06 µM). Moreover, in the data set on Streptococcus pneumoniae, the MIC was determined as 0.25 µg/mL (≈ 0.531 µM). In addition, in the data set on Staphylococcus aureus, the MIC is 2 µg/mL (≈ 4.25 µM). Besides, the MIC in data set [1] is 2 µg/mL (≈ 4.25 µM).

On to `C[N-][S+2]1([O-])CCC(c2ccc(N3CC(CNC(=S)C4CC4)OC3=O)cc2F)CC1` [Example 29, N-({(5S)-3-[3-Fluoro-4-[1-(methylimino)-1-oxidohexahydro-1λ^4-thiopyran-4-yl]phenyl]-2-oxo-1,3-oxazolidin-5-yl}methyl)cyclopropanecarbothioamide, Z-isomer], for which the melting point is 201 to 202 °C (dec.). For the same molecule, the MIC with Moraxella catarrhalis turned out to be 2 µg/mL (≈ 4.55 µM). In the data set on Enterococcus faecalis, the MIC is 0.5 µg/mL (≈ 1.14 µM). Moreover, in the data set with Enterococcus faecium, the MIC was found to be 1 µg/mL (≈ 2.27 µM). In addition, in the data set on H. influenzae, the MIC is 4 µg/mL (≈ 9.1 µM). Moreover, the MIC in the data set with Streptococcus pyogenes stood at 0.5 µg/mL (≈ 1.14 µM). Further, the MIC in the data set on Streptococcus pneumoniae stood at 0.25 µg/mL (≈ 0.569 µM). For the same molecule, the MIC in the data set on Staphylococcus aureus came to 1 µg/mL (≈ 2.27 µM). The MIC in data set [1] turned out to be 0.5 µg/mL (≈ 1.14 µM).

The values above are taken from patent US20010046987A1, “Oxazolidinones having a sulfoximine functionality” (priority 1999, published 2001).
